Reference: the supplement of paper PMC10307832

Experiments:
Test in all cases: relative viability (nuclei count vs DMSO), 5 days (fraction); higher = more cells survive
[1] = compound: CC1=C(C=CC(=C1)[N+](=O)[O-])NS(=O)(=O)C2=C(C=CC(=C2)Cl)Cl [FH535] + Nc1ncn([C@H]2C[C@H](O)[C@@H](CO)O2)c(=O)n1 [Decitabine] (partner 2 µM)
Outline: (§1)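 A single step with final 0.05% Triton X-100, 1% formaldehyde and 1 ug/ml Hoechst fixed the cells and stained nuclei 5 days after treatment. Lung cancer cell lines in 1536-well plates had been treated by pin tool the day after seeding with one drug alone or a fixed anchor-drug dose plus five library-drug doses (not always all listed) in √10 steps, and nuclei were counted on 4× images. Relative viability is the ratio of nuclei in treated wells to nuclei in vehicle wells, taken as the median of duplicate plates.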

[2] = compound: CC1=C(C=CC(=C1)[N+](=O)[O-])NS(=O)(=O)C2=C(C=CC(=C2)Cl)Cl [FH535] + CC(C)C[C@H](NC(=O)[C@H](Cc1ccccc1)NC(=O)c1cnccn1)B(O)O [Bortezomib] (partner 0.002 µM)
Outline: as §1

[3] = compound: CC1=C(C=CC(=C1)[N+](=O)[O-])NS(=O)(=O)C2=C(C=CC(=C2)Cl)Cl [FH535] + COc1cccc2cc(-c3nc([C@H]4CC[C@H](C(=O)O)CC4)n4ncnc(N)c34)[nH]c12 [OSI-027] (partner 0.5 µM)
Outline: as §1

[4] = compound: CC1=C(C=CC(=C1)[N+](=O)[O-])NS(=O)(=O)C2=C(C=CC(=C2)Cl)Cl [FH535] + Nc1nc2[nH]cc(CCc3ccc(C(=O)N[C@@H](CCC(=O)O)C(=O)O)cc3)c2c(=O)[nH]1 [Pemetrexed] (partner 0.2 µM)
Outline: as §1

[5] = compound: CC1=C(C=CC(=C1)[N+](=O)[O-])NS(=O)(=O)C2=C(C=CC(=C2)Cl)Cl [FH535] + C[C@@H](Oc1cc(-c2cnn(C3CCNCC3)c2)cnc1N)c1c(Cl)ccc(F)c1Cl [Crizotinib] (partner 1 µM)
Outline: as §1

| Cell Line | relative viability ([1]; first compound 0.04 µM) | relative viability ([1]; first compound 0.1265 µM) | relative viability ([1]; first compound 0.4 µM) | relative viability ([1]; first compound 1.265 µM) | relative viability ([2]; first compound 0.04 µM) | relative viability ([2]; first compound 0.1265 µM) | relative viability ([2]; first compound 0.4 µM) | relative viability ([2]; first compound 1.265 µM) | relative viability ([3]; first compound 0.04 µM) | relative viability ([3]; first compound 0.1265 µM) | relative viability ([3]; first compound 0.4 µM) | relative viability ([3]; first compound 1.265 µM) | relative viability ([4]; first compound 0.04 µM) | relative viability ([4]; first compound 0.1265 µM) | relative viability ([4]; first compound 0.4 µM) | relative viability ([4]; first compound 1.265 µM) | relative viability ([5]; first compound 0.04 µM) | relative viability ([5]; first compound 0.1265 µM) | relative viability ([5]; first compound 0.4 µM) | relative viability ([5]; first compound 1.265 µM) |
| --- | --- | --- | --- | --- | --- | --- | --- | --- | --- | --- | --- | --- | --- | --- | --- | --- | --- | --- | --- | --- |
| NCI-H2085 | 0.542 | 0.512 | 0.572 | 0.431 | 1.14 | 0.917 | 0.977 | 0.819 | 0.644 | 0.709 | 0.602 | 0.508 | 0.926 | 1.02 | 0.804 | 0.677 | 1.03 | 0.969 | 0.705 | 0.695 |
| NCI-H2087 | 0.26 | 0.225 | 0.194 | 0.18 | 0.7 | 0.57 | 0.719 | 0.528 | 0.522 | 0.454 | 0.478 | 0.421 | 0.656 | 0.694 | 0.663 | 0.624 | 0.96 | 0.774 | 0.765 | 0.415 |
| NCI-H2126 | 0.59 | 0.582 | 0.574 | 0.415 | 1.07 | 1.1 | 0.986 | 0.879 | 0.72 | 0.742 | 0.692 | 0.532 | 0.639 | 0.659 | 0.662 | 0.536 | 0.976 | 0.984 | 0.941 | 0.683 |
| NCI-H2347 | 0.594 | 0.678 | 0.614 | 0.572 | 0.843 | 1 | 1.02 | 0.627 | 0.405 | 0.486 | 0.306 | 0.37 | 0.523 | 0.405 | 0.43 | 0.41 | 0.677 | 0.617 | 0.807 | 0.649 |
| NCI-H2405 | 0.688 | 0.75 | 0.689 | 0.571 | 0.987 | 0.916 | 0.906 | 0.509 | 0.605 | 0.62 | 0.564 | 0.439 | 0.977 | 1.01 | 0.769 | 0.565 | 0.816 | 0.854 | 0.805 | 0.725 |
| NCI-H3122 | 0.338 | 0.393 | 0.46 | 0.413 | 0.979 | 0.976 | 0.989 | 0.919 | 0.919 | 1.06 | 0.885 | 0.751 | 0.199 | 0.191 | 0.188 | 0.189 | 0.261 | 0.282 | 0.253 | 0.285 |
| PC-3 [JPC-3] | 0.865 | 0.805 | 0.756 | 0.74 | 0.846 | 0.848 | 0.741 | 0.713 | 0.828 | 0.704 | 0.624 | 0.592 | 1.1 | 1.11 | 0.745 | 0.652 | 0.957 | 0.981 | 0.885 | 0.531 |
| PC-14 | 0.218 | 0.231 | 0.242 | 0.223 | 0.938 | 0.885 | 0.815 | 0.759 | 0.83 | 0.9 | 0.896 | 0.783 | 0.12 | 0.137 | 0.13 | 0.123 | 0.94 | 0.917 | 0.863 | 0.889 |
| RERF-LC-KJ | 0.645 | 0.707 | 0.55 | 0.467 | 1.11 | 1.11 | 1.11 | 0.788 | 0.538 | 0.616 | 0.6 | 0.4 | 0.466 | 0.491 | 0.469 | 0.435 | 0.856 | 0.826 | 0.86 | 0.671 |
| SK-LU-1 | 0.63 | 0.517 | 0.626 | 0.44 | 0.85 | 1.19 | 1.04 | 0.926 | 0.359 | 0.347 | 0.324 | 0.235 | 1.01 | 1.01 | 1.04 | 0.865 | 1.15 | 0.793 | 0.849 | 0.703 |
| SW 1573 | 0.464 | 0.515 | 0.52 | 0.411 | 0.957 | 1.12 | 1.07 | 0.862 | 0.601 | 0.613 | 0.67 | 0.445 | 0.768 | 0.745 | 0.902 | 0.755 | 0.64 | 0.751 | 0.865 | 0.683 |
| UMC-11 | 0.609 | 0.529 | 0.594 | 0.576 | 0.545 | 0.478 | 0.48 | 0.54 | 0.413 | 0.561 | 0.431 | 0.416 | 0.653 | 0.799 | 0.788 | 0.763 | 0.639 | 0.583 | 0.582 | 0.626 |
